We go through 3 molecules from PMC12687421, “Characterisation of an allosteric site in PLCγ enzymes and implications for development of their specific inhibitors” (Biochemical Journal, 2025).

pIC50: −log10 of the molar value.

For one assay, the system named is CD95–PLCγ1 interaction. Further details: method as in PMID 30429604, PMID 31548507. The following applies: cited from earlier work.
The subject of another assay is disease mouse model. Details: method as in PMID 30429604, PMID 31548507. The following applies: cited from earlier work.
The target of assay [1] is T1, PLCγ1^S345F (Homo sapiens, UniProt P19174, I813T/S345F).
T1 construct: His-tag (N); Myc-tag (C); made in house; host or cells: Escherichia coli T7 Express lysY/Iq
T1 sequence (P19174 1-1291 isoform P19174-2 S345F/I813T): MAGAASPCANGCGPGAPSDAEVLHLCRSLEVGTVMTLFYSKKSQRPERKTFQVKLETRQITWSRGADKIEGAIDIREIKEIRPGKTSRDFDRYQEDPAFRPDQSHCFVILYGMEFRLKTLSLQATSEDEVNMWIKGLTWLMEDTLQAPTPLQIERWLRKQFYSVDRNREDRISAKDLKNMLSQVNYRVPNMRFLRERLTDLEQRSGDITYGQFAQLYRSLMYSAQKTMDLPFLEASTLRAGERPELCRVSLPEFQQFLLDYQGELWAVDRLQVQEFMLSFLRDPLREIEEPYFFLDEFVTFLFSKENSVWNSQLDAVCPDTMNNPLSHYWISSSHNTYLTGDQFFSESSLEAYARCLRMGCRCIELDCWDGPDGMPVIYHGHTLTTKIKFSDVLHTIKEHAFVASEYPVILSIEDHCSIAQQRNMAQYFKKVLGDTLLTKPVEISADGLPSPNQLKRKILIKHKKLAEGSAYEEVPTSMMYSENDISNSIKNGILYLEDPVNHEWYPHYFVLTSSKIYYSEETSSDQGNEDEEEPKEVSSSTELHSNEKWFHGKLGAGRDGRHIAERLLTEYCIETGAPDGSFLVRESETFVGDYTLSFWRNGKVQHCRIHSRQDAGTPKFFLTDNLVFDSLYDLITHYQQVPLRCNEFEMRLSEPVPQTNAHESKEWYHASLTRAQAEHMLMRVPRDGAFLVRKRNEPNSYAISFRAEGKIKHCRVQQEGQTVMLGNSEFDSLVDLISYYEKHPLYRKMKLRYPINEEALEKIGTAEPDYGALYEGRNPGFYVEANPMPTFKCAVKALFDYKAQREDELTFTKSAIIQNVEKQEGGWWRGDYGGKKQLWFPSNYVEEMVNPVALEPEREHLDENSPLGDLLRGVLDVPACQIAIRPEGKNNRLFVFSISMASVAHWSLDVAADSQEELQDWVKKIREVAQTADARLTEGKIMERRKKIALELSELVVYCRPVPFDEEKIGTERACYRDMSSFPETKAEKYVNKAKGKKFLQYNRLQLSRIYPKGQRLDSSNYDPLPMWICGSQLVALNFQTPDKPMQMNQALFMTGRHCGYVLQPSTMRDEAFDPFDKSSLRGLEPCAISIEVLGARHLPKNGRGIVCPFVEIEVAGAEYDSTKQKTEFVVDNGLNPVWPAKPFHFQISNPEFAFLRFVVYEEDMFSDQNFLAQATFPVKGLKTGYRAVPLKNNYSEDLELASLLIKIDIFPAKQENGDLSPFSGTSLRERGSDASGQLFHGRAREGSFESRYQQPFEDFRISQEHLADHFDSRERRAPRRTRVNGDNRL
Description: Fluorescence polarisation competition with TNP-ATP. The conditions noted are these: fixed TNP-ATP. Format: binding. The procedure: Experiments were performed in black small volume 384-well plates (Greiner) on a Pherastar FS microplate reader (BMG Labtech) utilising an FP module with Excitation 485 nm and Emission 520 nm. […] PLCγ1^S345F protein was titrated against the fixed concentration of TNP-ATP and the FP data fit in GraphPad Prism using the One site Total binding model. […] Equal amounts of DMSO only were added in a parallel FP experiment. Generated data was also fit in GraphPad Prism using the One site -Total binding model. Each experiment was performed in triplicate and the data presented as the mean and SD.
In general terms: Polarisation of emitted light reports the rotation of a fluorescent probe.

In a further assay the target is T2, PLCδ1^Δ44 (Homo sapiens, UniProt P51178, DEL445-487).
T2 construct: Avi-tag (N); His-tag (N); expressed in transfected cells
T2 sequence (P51178 with tags, fused parts or gaps DEL445-487): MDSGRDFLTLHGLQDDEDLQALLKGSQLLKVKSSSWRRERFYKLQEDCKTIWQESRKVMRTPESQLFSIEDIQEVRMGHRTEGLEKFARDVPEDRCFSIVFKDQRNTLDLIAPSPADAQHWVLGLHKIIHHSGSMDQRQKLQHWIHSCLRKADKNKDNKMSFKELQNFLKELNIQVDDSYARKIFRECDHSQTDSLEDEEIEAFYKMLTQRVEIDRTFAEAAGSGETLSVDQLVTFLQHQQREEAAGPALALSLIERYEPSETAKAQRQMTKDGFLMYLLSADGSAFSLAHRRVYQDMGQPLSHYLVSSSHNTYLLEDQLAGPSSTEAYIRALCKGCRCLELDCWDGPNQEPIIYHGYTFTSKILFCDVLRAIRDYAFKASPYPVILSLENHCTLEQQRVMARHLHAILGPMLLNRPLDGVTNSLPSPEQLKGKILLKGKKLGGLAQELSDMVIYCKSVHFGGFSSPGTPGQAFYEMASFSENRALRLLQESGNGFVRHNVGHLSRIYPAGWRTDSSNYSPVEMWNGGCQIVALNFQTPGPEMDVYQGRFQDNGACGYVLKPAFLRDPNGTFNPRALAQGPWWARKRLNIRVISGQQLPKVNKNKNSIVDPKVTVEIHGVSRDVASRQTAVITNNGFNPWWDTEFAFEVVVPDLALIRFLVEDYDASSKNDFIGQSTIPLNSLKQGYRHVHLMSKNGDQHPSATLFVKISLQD
Description: IP-ONE assay in HEK stable cell line expressing PLCδ1^Δ44. Format: cell-based. An excerpt: (§1) For generating HEK cell lines that stably express PLC variants, an in-house Gateway compatible, Lenti viral vector was generated using In-Fusion cloning (Takara Bio) following manufacturer’s protocols. The vector backbone consisted of pLenti PGK Puro DEST (Addgene 19068). A KOZAK sequence, Avi-tag and His-tag (KAH cassette) was inserted between the PGK promoter and the attR1 vector regions. An IRES2 EmGFP cassette was inserted between the attR2 and WPRE regions. Both cassettes were PCR amplified from vector pHR-CMV-TetO2_3C-Avi-His6_IRES-EmGFP (Addgene 113888). Finally, a BirA ORF was cloned in-frame upstream of the EmGFP, which would express as a BirA-EmGFP fusion protein. The resulting Gateway compatible destination vector was used in the LR reaction (Thermo Fisher) with pENTR207 clones containing the PLCγ1^S345F or an activated version of PLCδ1, where the amino acids 445–487 had been deleted (PLCδ1Δ^44), to generate their respective expression clones ready for preparing stable cell lines in HEK.
(§2) Stable cell lines overexpressing PLCγ1^S345F or PLCδ1^Δ44 were prepared as described in [28]. […] Fluorescence-activated cell sorting (FACS) was used to select the top 10% of GFP-expressing cells. […]
(§3) PLC activity in cell lines was measured using the IP-ONE assay according to the manufacturer’s instructions as described in [28]. […]

Assay [2] deals with T3, PLCγ1^S345F (Homo sapiens, UniProt P19174, S345F).
T3 construct: Avi-tag (N); His-tag (N); expressed in transfected cells
T3 sequence (P19174 1-1290 S345F): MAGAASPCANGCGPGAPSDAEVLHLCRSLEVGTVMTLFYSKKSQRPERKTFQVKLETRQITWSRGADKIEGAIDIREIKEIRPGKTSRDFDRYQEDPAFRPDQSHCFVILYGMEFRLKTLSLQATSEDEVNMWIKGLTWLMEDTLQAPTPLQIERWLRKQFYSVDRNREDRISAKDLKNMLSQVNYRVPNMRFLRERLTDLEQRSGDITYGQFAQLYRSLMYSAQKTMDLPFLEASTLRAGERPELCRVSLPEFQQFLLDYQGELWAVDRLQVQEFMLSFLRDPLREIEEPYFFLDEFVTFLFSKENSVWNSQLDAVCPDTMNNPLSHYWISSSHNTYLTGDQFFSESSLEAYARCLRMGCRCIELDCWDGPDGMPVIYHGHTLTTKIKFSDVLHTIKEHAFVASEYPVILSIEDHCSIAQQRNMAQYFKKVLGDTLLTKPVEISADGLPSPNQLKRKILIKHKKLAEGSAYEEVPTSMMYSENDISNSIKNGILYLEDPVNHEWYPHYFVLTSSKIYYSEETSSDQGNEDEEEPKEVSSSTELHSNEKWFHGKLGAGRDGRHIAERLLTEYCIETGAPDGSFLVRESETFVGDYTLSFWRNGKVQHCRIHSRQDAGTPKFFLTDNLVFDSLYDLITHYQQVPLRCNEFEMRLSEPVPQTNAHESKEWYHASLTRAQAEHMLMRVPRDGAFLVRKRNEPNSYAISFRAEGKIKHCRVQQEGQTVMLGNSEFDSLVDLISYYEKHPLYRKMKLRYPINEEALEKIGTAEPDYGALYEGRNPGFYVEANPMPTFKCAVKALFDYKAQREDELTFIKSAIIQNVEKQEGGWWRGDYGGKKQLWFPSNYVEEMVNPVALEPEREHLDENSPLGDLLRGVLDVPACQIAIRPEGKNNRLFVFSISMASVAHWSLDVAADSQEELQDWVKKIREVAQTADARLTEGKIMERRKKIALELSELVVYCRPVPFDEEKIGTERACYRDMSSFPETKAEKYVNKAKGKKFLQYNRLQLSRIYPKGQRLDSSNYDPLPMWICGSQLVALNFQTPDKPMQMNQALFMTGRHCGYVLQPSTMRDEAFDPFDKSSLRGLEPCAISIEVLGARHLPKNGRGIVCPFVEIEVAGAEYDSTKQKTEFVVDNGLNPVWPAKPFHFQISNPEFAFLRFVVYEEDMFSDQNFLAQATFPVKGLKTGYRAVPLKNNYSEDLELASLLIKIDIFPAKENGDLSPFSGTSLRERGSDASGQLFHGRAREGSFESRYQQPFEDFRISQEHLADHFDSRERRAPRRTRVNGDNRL
Description: IP-ONE assay in HEK stable cell line expressing PLCγ1^S345F. It is filed as cell-based.
From the text: as §1, §2, §3

What is called pIC50 is the IC50 on a negative log10 scale, so that one unit is a factor of ten.

`CC(C)c1nc(CN(C)C(=O)N[C@H](C(=O)N[C@@H](Cc2ccccc2)C[C@H](O)[C@H](Cc2ccccc2)NC(=O)OCc2cncs2)C(C)C)cs1` [ritonavir]: the “CD95–PLCγ1 interaction” value with CD95–PLCγ1 interaction was “disrupt”. Moreover, the “clinical symptoms in a disease mouse model” value with disease mouse model is reported as “alleviating clinical symptoms”.

For the molecule `O=P(O)(O)CP(=O)(O)OC[C@H]1O[C@@H](n2cnc3c(NCc4ccccc4)ncnc32)[C@H](O)[C@@H]1O` [PSB 12379], the “competition with binding of fluorescently labelled ATP analogue (TNP-ATP)” value on PLCγ1^S345F [1] is “competed”.

As for `CC(=O)OC[C@H]1O[C@@H](n2ncc(=O)[nH]c2=O)[C@H](OC(C)=O)[C@@H]1OC(C)=O` [Azaribine], the “effect on PLC activity of PLCδ1 in stable cell line” value on PLCδ1^Δ44 was “no effect”. Moreover, the “IC50, PLC activity (IP1) in stable cell line” value against PLCδ1^Δ44 (PLCδ1 Δ44) is “no inhibition”. Moreover, the “inhibition of PLC activity of PLCγ1^S345F in cell-based assay” value against PLCγ1^S345F [2] is “potently inhibited”. The pIC50 on PLCγ1^S345F [2] (PLCγ1 S345F, read-out: IC50, PLC activity (IP1) in stable cell line) was 5.80.
